From US10807970B2 (priority 2016, dated 2020)
Read-outs that look alike come from different tables or passages of the source.

Target: human σ1 receptor (Homo sapiens, UniProt Q99720)
Assay: Human σ1 receptor radioligand assay ([3H](+)-pentazocine, transfected HEK-293 membranes)
Assay type: binding
Set-up: μ and σ1 dual binding: key to the marks not given beside the values
Conditions: one class symbol for both Ki-σ1 (human σ1 receptor, A1) and Ki-μ (human μ-opioid receptor, A2)
Method in brief: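 Membranes from HEK-293 cells transfected with human σ1 receptor (7 μg) incubated with 5 nM [3H](+)-pentazocine in 50 mM Tris-HCl pH 8, 120 min at 37° C. Non-specific binding defined with 10 μM haloperidol. Bound radioligand separated by filtration, washed with ice-cold 10 mM Tris-HCl pH 7.4, and counted by scintillation.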

[1] = read-out: μ and σ1 dual binding

Sequence of human σ1 receptor (Q99720 whole entry): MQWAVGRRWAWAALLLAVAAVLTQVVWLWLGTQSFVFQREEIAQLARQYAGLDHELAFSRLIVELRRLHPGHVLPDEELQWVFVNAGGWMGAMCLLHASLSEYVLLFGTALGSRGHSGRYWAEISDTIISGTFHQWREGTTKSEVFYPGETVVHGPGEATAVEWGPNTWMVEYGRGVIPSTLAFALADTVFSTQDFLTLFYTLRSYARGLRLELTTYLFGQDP

CN(Cc1ccccc1)[C@H]1CCN([C@@]2(C(=O)c3ccccn3)CCOC(C)(C)C2)C1 [Example 140, ((S)-4-((S)-3-(benzyl(methyl)amino)pyrrolidin-1-yl)-2,2-dimethyltetrahydro-2H-pyran-4-yl)(pyridin-2-yl)methanone] was tested, and the Ki (μ and σ1 dual binding) was < 500 nM.
With CC(C)OCCN1CCN([C@]2(C(=O)c3ccccn3)CCO[C@@H](C)C2)CC1 [Example 96] the Ki [1] was > 500 nM.
For CC(C)OCCN1CCN(C2(C(=O)c3ccccn3)CCOC(C)(C)C2)CC1 (stereo not shown) [Example 65, (4-(4-(2-isopropoxyethyl)piperazin-1-yl)-2,2-dimethyltetrahydro-2H-pyran-4-yl)(pyridin-2-yl)methanone], the Ki [1] was < 500 nM.
In the case of CC1(C)CC(Cc2ccccc2)(N2CCN(Cc3ccccc3)CC2)CCO1 (stereo not shown) [Example 40, 1-benzyl-4-(4-benzyl-2,2-dimethyltetrahydro-2H-pyran-4-yl)piperazine], the Ki (μ and σ1 dual binding) is reported as < 100 nM.
C=C(C)CCN1CCN(C2(C(=O)c3ccccn3)CCOC(C)(C)C2)CC1 (stereo not shown) [Example 118, (2,2-Dimethyl-4-(4-(3-methylbut-3-enyl)piperazin-1-yl)tetrahydro-2H-pyran-4-yl)(pyridin-2-yl)methanone] was tested, and the Ki (μ and σ1 dual binding) was < 500 nM.
For CC(C)CCN1CCN([C@]2(C(=O)c3ccccn3)CCO[C@@H](C)C2)CC1 [Example 98], the Ki [1] was < 500 nM.
With CC(C)OCCN1CCC([C@@]2(C(=O)c3ccccn3)CCOC(C)(C)C2)CC1 [Example 245, (R)-(4-(1-(2-isopropoxyethyl)piperidin-4-yl)-2,2-dimethyltetrahydro-2H-pyran-4-yl)(pyridin-2-yl)methanone] the “μ and σ1 dual binding” value was “++”.
In the case of c1ccc(CN2CCC(C3(c4ccccn4)CCOCC3)CC2)cc1 [Example 124, 2-(4-(1-benzylpiperidin-4-yl)tetrahydro-2H-pyran-4-yl)pyridine], the “μ and σ1 dual binding” value is reported as “++”.
With CC(C)CCN1CCC(C2(C(=O)c3ccccn3)CCOC(C)(C)C2)CC1 (stereo not shown) [Example 76, (4-(1-isopentylpiperidin-4-yl)-2,2-dimethyltetrahydro-2H-pyran-4-yl)(pyridin-2-yl)methanone] the Ki (μ and σ1 dual binding) was < 100 nM.
In the case of CC1(C)CC(C(=O)c2ccccn2)(N2CCN(CCc3cccnc3)CC2)CCO1 (stereo not shown) [Example 80, (2,2-dimethyl-4-(4-(2-(pyridin-3-yl)ethyl)piperazin-1-yl)tetrahydro-2H-pyran-4-yl)(pyridin-2-yl)methanone], the Ki [1] is reported as > 500 nM.
For CC1(C2CCN(Cc3ccccc3)CC2)CCOCC1 [Example 165, 1-benzyl-4-(4-methyltetrahydro-2H-pyran-4-yl)piperidine], the Ki [1] was > 500 nM.
CCOCCN1CCN(C2(C(=O)c3ccccn3)CCOC(C)(C)C2)CC1 (stereo not shown) [Example 67, (4-(4-(2-ethoxyethyl)piperazin-1-yl)-2,2-dimethyltetrahydro-2H-pyran-4-yl)(pyridin-2-yl)methanone] was tested, and the Ki [1] was > 500 nM.
CC1(C)CC(C(=O)c2ccccn2)(N2CCCN(Cc3ccccc3)CC2)CCO1 (stereo not shown) [Example 24, (4-(4-benzyl-1,4-diazepan-1-yl)-2,2-dimethyltetrahydro-2H-pyran-4-yl)(pyridin-2-yl)methanone] was tested, and the Ki (μ and σ1 dual binding) was < 500 nM.
With CC[C@@]1(N2CCN(Cc3ccc(C#N)cc3)CC2)CCO[C@@H](C)C1 [Example 250, 4-((4-((2S,4R)-4-ethyl-2-methyltetrahydro-2H-pyran-4-yl)piperazin-1-yl)methyl)benzonitrile] the Ki [1] was > 500 nM.
CC(C)CCN1CCN(C2(C(=O)c3ccccn3)CCOCC2)CC1 [Example 177, (4-(4-isopentylpiperazin-1-yl)tetrahydro-2H-pyran-4-yl)(pyridin-2-yl)methanone] was tested, and the “μ and σ1 dual binding” value was “++”.
For CCC1(N2CCN(CCC(C)C)CC2)CCOC(C)(C)C1 (stereo not shown) [Example 78, 1-(4-ethyl-2,2-dimethyltetrahydro-2H-pyran-4-yl)-4-isopentylpiperazine], the “μ and σ1 dual binding” value was “++”.
For CCC1(N2CCN(CCc3cccc(F)c3)CC2)CCOC(C)(C)C1 (stereo not shown) [Example 93, 1-(4-ethyl-2,2-dimethyltetrahydro-2H-pyran-4-yl)-4-(3-fluorophenethyl)piperazine], the Ki (μ and σ1 dual binding) was < 500 nM.
With CC(C)(F)CCN1CCN(C2(C(=O)c3ccccn3)CCOC(C)(C)C2)CC1 (stereo not shown) [Example 117, (4-(4-(3-fluoro-3-methylbutyl)piperazin-1-yl)-2,2-dimethyltetrahydro-2H-pyran-4-yl)(pyridin-2-yl)methanone] the Ki (μ and σ1 dual binding) was < 500 nM.
CC(C)CCN1CCN(C2(C(=O)c3ccccn3)CCOC(C)(C)C2)CC1 (stereo not shown) [Example 64, (4-(4-isopentylpiperazin-1-yl)-2,2-dimethyltetrahydro-2H-pyran-4-yl)(pyridin-2-yl)methanone] was tested, and the Ki (μ and σ1 dual binding) was < 500 nM.
In the case of CCC1(N2CCN(Cc3ccc(F)cc3)CC2)CCOCC1 [Example 175, 1-(4-ethyltetrahydro-2H-pyran-4-yl)-4-(4-fluorobenzyl)piperazine], the “μ and σ1 dual binding” value is reported as “++”.
For CCC1(N2CCN(CCc3cccc(F)c3F)CC2)CCOC(C)(C)C1 (stereo not shown) [Example 100, 1-(2,3-difluorophenethyl)-4-(4-ethyl-2,2-dimethyltetrahydro-2H-pyran-4-yl)piperazine], the Ki (μ and σ1 dual binding) was < 500 nM.
With O=C(c1ccccn1)C1(N2CCN(Cc3ccc(OC(F)(F)F)cc3)CC2)CCOCC1 [Example 194, pyridin-2-yl(4-(4-(4-(trifluoromethoxy)benzyl)piperazin-1-yl)tetrahydro-2H-pyran-4-yl)methanone] the Ki [1] was > 500 nM.
With CC(C)OCCN1CC2CN(C3(C(=O)c4ccccn4)CCOC(C)(C)C3)CC2C1 (stereo not shown) [Example 73, (4-(5-(2-isopropoxyethyl)hexahydropyrrolo[3,4-c]pyrrol-2(1H)-yl)-2,2-dimethyltetrahydro-2H-pyran-4-yl)(pyridin-2-yl)methanone] the “μ and σ1 dual binding” value was “++”.
CC(C)CN1CCC(C2(c3ccccn3)CCOC(C)(C)C2)CC1 (stereo not shown) [Example 126, 2-(4-(1-isobutylpiperidin-4-yl)-2,2-dimethyltetrahydro-2H-pyran-4-yl)pyridine] was tested, and the Ki (μ and σ1 dual binding) was > 500 nM.
For c1ccc(CC2(N3CCN(Cc4cccnc4)CC3)CCOC3(CCCC3)C2)cc1 (stereo not shown) [Example 122, 1-(9-benzyl-6-oxaspiro[4.5]decan-9-yl)-4-(pyridin-3-ylmethyl)piperazine], the Ki (μ and σ1 dual binding) was < 500 nM.
CC(C)OCCN(C)[C@H]1CCN([C@@]2(C(=O)c3ccccn3)CCOC(C)(C)C2)C1 [Example 147, ((S)-4-((S)-3-((2-isopropoxyethyl)(methyl)amino)pyrrolidin-1-yl)-2,2-dimethyltetrahydro-2H-pyran-4-yl)(pyridin-2-yl)methanone] was tested, and the “μ and σ1 dual binding” value was “++”.
With C[C@H]1C[C@@](C(=O)c2ccccn2)(C2CCN(Cc3ccccc3)CC2)CCO1 [Example 152] the “μ and σ1 dual binding” value was “++”.
For CCC1(N2CCN(CCC(C)C)CC2)CCOCC1 [Example 180, 1-(4-ethyltetrahydro-2H-pyran-4-yl)-4-isopentylpiperazine], the “μ and σ1 dual binding” value was “++”.
CC1(C)CC(C(=O)c2cccc(C(F)(F)F)n2)(N2CCN(Cc3ccccc3)CC2)CCO1 (stereo not shown) [Example 15, (4-(4-benzylpiperazin-1-yl)-2,2-dimethyltetrahydro-2H-pyran-4-yl)(6-(trifluoromethyl)pyridin-2-yl)methanone] was tested, and the Ki (μ and σ1 dual binding) was < 100 nM.
In the case of CC(C)OCCN1CCN(C2(C(=O)c3ccccc3)CCOC(C)(C)C2)CC1 (stereo not shown) [Example 13, (4-(4-(2-isopropoxyethyl)piperazin-1-yl)-2,2-dimethyltetrahydro-2H-pyran-4-yl)(phenyl)methanone], the “μ and σ1 dual binding” value is reported as “++”.
CC1(N2CCN(Cc3ccccc3)CC2)CCOCC1 [Example 156, 1-Benzyl-4-(4-methyltetrahydro-2H-pyran-4-yl)piperazine] was tested, and the “μ and σ1 dual binding” value was “++”.
For CC(C)COCCN1CCN(C2(C(=O)c3ccccn3)CCOC(C)(C)C2)CC1 (stereo not shown) [Example 66, (4-(4-(2-isobutoxyethyl)piperazin-1-yl)-2,2-dimethyltetrahydro-2H-pyran-4-yl)(pyridin-2-yl)methanone], the Ki (μ and σ1 dual binding) was < 500 nM.
For CC(C)CCN1CCN(C2(C(=O)c3ccccc3)CCOC(C)(C)C2)CC1 (stereo not shown) [Example 12, (4-(4-isopentylpiperazin-1-yl)-2,2-dimethyltetrahydro-2H-pyran-4-yl)(phenyl)methanone], the Ki (μ and σ1 dual binding) was < 500 nM.
CC1(C)C[C@@](C(=O)c2ccccn2)(N2CCN(Cc3ccccc3)CC2)CCO1 [Example 2, (S)-(4-(4-benzylpiperazin-1-yl)-2,2-dimethyltetrahydro-2H-pyran-4-yl)(pyridin-2-yl)methanone] was tested, and the “μ and σ1 dual binding” value was “++”.
For CC1(N2CCN(Cc3ccc(F)cc3)CC2)CCOCC1 [Example 182, 1-(4-fluorobenzyl)-4-(4-methyltetrahydro-2H-pyran-4-yl)piperazine], the “μ and σ1 dual binding” value was “++”.
In the case of O=C(c1ccccn1)C1(C2CCN(Cc3ccccc3)CC2)CCOCC1 [Example 21, (4-(1-benzylpiperidin-4-yl)tetrahydro-2H-pyran-4-yl)(pyridin-2-yl)methanone], the “μ and σ1 dual binding” value is reported as “++”.
For CC(C)OCCN1CCN([C@]2(C(=O)c3ccccn3)CCOC(C)(C)C2)CC1 [Example 135, (R)-(4-(4-(2-isopropoxyethyl)piperazin-1-yl)-2,2-dimethyltetrahydro-2H-pyran-4-yl)(pyridin-2-yl)methanone], the Ki [1] was < 500 nM.
In the case of CC(C)OCCCN1CCN(C2(C(=O)c3ccccn3)CCOC(C)(C)C2)CC1 (stereo not shown) [Example 71, (4-(4-(3-isopropoxypropyl)piperazin-1-yl)-2,2-dimethyltetrahydro-2H-pyran-4-yl)(pyridin-2-yl)methanone], the Ki (μ and σ1 dual binding) is reported as < 500 nM.
In the case of CC(C)OCCN1CCN(C2(C)CCOC(C)(C)C2)CC1 (stereo not shown) [Example 37, 1-(2-isopropoxyethyl)-4-(2,2,4-trimethyltetrahydro-2H-pyran-4-yl)piperazine], the “μ and σ1 dual binding” value is reported as “++”.
CC(C)OCCN1CCC(C2(C(=O)c3ccccn3)CCOC(C)(C)C2)CC1 (stereo not shown) [Example 77, (4-(1-(2-isopropoxyethyl)piperidin-4-yl)-2,2-dimethyltetrahydro-2H-pyran-4-yl)(pyridin-2-yl)methanone] was tested, and the Ki [1] was < 500 nM.
